Where two headings read alike, the source gives them in different places. Ends that are not written are not given here.
Assays:
[1] = 13-week intranasal toxicity and toxicokinetics in rats; assay type: in vivo, rat; settings: Crl:CD(SD), rat, in vivo, sc, 25 μg/kg/day, female rats, administered by injection (subcutaneous)
Description: (§1) Toxicity and toxicokinetics of PTH1-34 formulations were evaluated in male and female Crl:CD(SD) rats. PTH1-34 (synthetic form) was administered once daily via intranasal instillation to rats for at least 13 weeks. For comparison, one group received commercially available recombinant PTH1-34 via subcutaneous injection. Assessment of toxicity was based on mortality, clinical observations, ophthalmic examinations, body weights, food consumption, clinical and anatomic pathology, and toxicokinetic evaluations. Two synthetic PTH1-34 formulations were used in the study, PTH-072-1 and PTH-074 at low and high doses (formulations are shown in Table 22).
(§2) Doses in rats were determined for body weight, body surface area, and nasal surface area. Representative concentrations of PTH1-34 for clinical studies were considered to be 1.5 mg/mL and 3.0 mg/mL (and a dose volume of 100 μL). For the lower concentration, a 70 kg human would receive a dose of 2.1 μg/kg based on body weight. At the higher dose a human would receive a dose of 4.3 μg/kg based on body weight.

Crl:CD(SD) rats = assay: as above; assay type: in vivo, rat
Description: as §1, §2

[2] = 13-week intranasal toxicity and toxicokinetics in dogs; assay type: in vivo; settings: both sexes, beagle, dog, in vivo, sc, 6 μg/kg/day; dogs, subcutaneous injection; read-out: Tmax for PTH1-34
Description: (§3) Toxicity and toxiokinetics of PTH1-34 was studied after administration of PTH1-34 once daily by intranasal instillation to dogs for at least 13 weeks. One additional group received recombinant PTH1-34 by subcutaneous injection for comparison.
(§4) Male and female beagles were assigned among six study groups. Animals assigned to groups 1 through 5 received an intranasal installation of a negative control (0.9% Sodium Chloride for Injection, USP), 40 or 80 μg/kg of body weight/day (μg/kg/day) PTH1-34 (synthetic form) in the PTH-072 formulation (Example 10, Table 22), or 80 or 200 μg/kg/day PTH1-34 (synthetic form) in the PTH-074-1 formulation (Example 10, Table 22).
(§5) Results were collected for mortality, clinical signs, gross nasal passage observations, ophthalmic findings, electrocardiogram measurements, blood pressure and heart rate differences, body weights, food consumption, clinical and anatomic pathology, and toxicokinetic evaluations. All animals in the study survived to scheduled necropsy. […] The nasal cavity was sectioned such that meaningful regions of the cavity were represented, and the soft (e.g., epithelial lining) or hard tissues (e.g., bone and cartilage based structures) of the nasal cavity were examined.

beagles = assay: as above; assay type: in vivo
Description: as §3, §4, §5

MatTek in vitro system = assay: Chlorobutanol permeation study of API formulations (PTH, Calcitonin), MatTek in vitro system, ELISA; assay type: cell-based; settings: CB 0-5 mg/mL
Description: Chlorobutanol (CB) was added to API formulations (PTH and Calcitonin) to test permeation in the MatTek in vitro system. CB was tested at varying concentrations (0, 1.25, 2.5, 3.75 and 5 mg/mL) in 10 mM citrate buffer, pH 4.0 and adjusted for a final target osmolality of 220 mOsm with sorbitol. Calcitonin and PTH were added at 2 mg/mL in each of the respective control or test formulations (n=6 insert per formulation). 1 mL of each formulation was placed into silanized 3 cc vials. A 0.1 mL volume of a 20× stock of one of the API compounds was added to 0.9 mL of 1.1× concentrated diluent form of each of the CB formulations to make the unique formulations.

[3] = tested on: EpiAirway Tissue Model (normal, human-derived tracheal/bronchial epithelial cells); assay: Transepithelial electrical resistance (TER), MatTek cell model (Examples 1-2); assay type: cell-based; settings: 1-h incubation, apical application
Description: The effect of various permeation enhancers on PTH formulations was measured in a MatTek cell model (MatTek, Corp. Ashland, Mass.). Three permeation enhancers (EDTA, ethanol, and polysorbate 80 (Tween 80)) were evaluated individually and in combination with one another. Sorbitol was used as a tonicifiers to adjust the osmolality of formulations to 220 mOsm/kg whenever applicable. The formulation pH was adjusted to ˜4.0. The permeation enhancer combination of 45 mg/ml Me-β-CD, 1 mg/ml DDPC, and 1 mg/ml EDTA at pH 4.5 served as the positive control. The formulation containing sorbitol only was used as the negative control. Each formulation was evaluated in the presence and absence of preservative. […]
Each tissue insert was placed in an individual well containing 1 ml media. […] Transepithelial electrical resistance (TER) was measured before and after the 1-h incubation. Following the incubation, the cell inserts were analyzed for cell viability via the mitochondrial dehydrogenase (MDH) assay.
TER measurements were accomplished using the Endohm-12 Tissue Resistance Measurement Chamber connected to the EVOM Epithelial Voltammeter (World Precision Instruments, Sarasota, Fla.) with the electrode leads. […] The background resistance was measured with 1.5 ml Media in the Endohm tissue chamber and 300 μl Media in the blank insert. […] Resistance was expressed as (resistance measured−blank)×0.6 cm^2. […]

[4] = tested on: EpiAirway Tissue Model (normal, human-derived tracheal/bronchial epithelial cells); assay: Cell viability, MTT assay (Example 3); assay type: cell-based; settings: after 1-h incubation
Description: (§6) Each tissue insert was placed in an individual well containing 1 ml media. On the apical surface of the inserts, 100 μl of test formulation was applied, and the samples were shaken for 1 h at 37° C. The underlying culture media samples were taken at 20, 40, and 60 minutes and stored at 4° C. for up to 48 hours for lactate dehydrogenase (LDH, cytotoxicity) and sample penetration (PTH HPLC evaluations). The 60-min samples were used for the lactate dehydrogenase (LDH, cytotoxicity) assay. Transepithelial electrical resistance (TER) was measured before and after the 1-h incubation. Following the incubation, the cell inserts were analyzed for cell viability via the mitochondrial dehydrogenase (MDH) assay.
Cell viability was assessed using the MTT assay (MTT-100, MatTek kit). Thawed and diluted MTT concentrate was pipetted (300 μl) into a 24-well plate. Tissue inserts were gently dried, placed into the plate wells, and incubated at 37° C. for 3 hours. After incubation, each insert was removed from the plate, blotted gently, and placed into a 24-well extraction plate. The cell culture inserts were immersed in 2.0 ml of the extractant solution per well (to completely cover the sample). The extraction plate was covered and sealed to reduce evaporation of extractant. […] The optical density of the samples was measured at 550 nm on a plate reader.

[5] = tested on: EpiAirway Tissue Model (normal, human-derived tracheal/bronchial epithelial cells); assay: Cytotoxicity, LDH assay (Example 3); assay type: cell-based; settings: 60-min samples
Description: as §6
The amount of cell death was assayed by measuring the loss of lactate dehydrogenase (LDH) from the cells using a CytoTox 96 Cytoxicity Assay Kit (Promega Corp., Madison, Wis.). LDH analysis of the apical media was evaluated. The appropriate amount of media was added to the apical surface in order to total 250 μL, taking into consideration the initial sample loading volume. The inserts was shaken for 5 minutes. 150 μL of the apical media was removed to eppendorf tubes and centrifuged at 10000 rpm for 3 minutes. […] Following incubation, 50 μl of stop solution was added to each well and the plates read on an optical density plate reader at 490 nm.

[6] = anesthetized rats, cited from earlier work

Compound: CC[C@H](C)[C@H](NC(=O)[C@H](CCC(=O)O)NC(=O)[C@H](CO)NC(=O)[C@@H](NC(=O)[C@@H](N)CO)C(C)C)C(=O)N[C@@H](CCC(N)=O)C(=O)N[C@@H](CC(C)C)C(=O)N[C@@H](CCSC)C(=O)N[C@@H](Cc1cnc[nH]1)C(=O)N[C@@H](CC(N)=O)C(=O)N[C@@H](CC(C)C)C(=O)NCC(=O)N[C@@H](CCCCN)C(=O)N[C@@H](Cc1cnc[nH]1)C(=O)N[C@@H](CC(C)C)C(=O)N[C@@H](CC(N)=O)C(=O)N[C@@H](CO)C(=O)N[C@@H](CCSC)C(=O)N[C@@H](CCC(=O)O)C(=O)N[C@@H](CCCN=C(N)N)C(=O)N[C@H](C(=O)N[C@@H](CCC(=O)O)C(=O)N[C@@H](Cc1c[nH]c2ccccc12)C(=O)N[C@@H](CC(C)C)C(=O)N[C@@H](CCCN=C(N)N)C(=O)N[C@@H](CCCCN)C(=O)N[C@@H](CCCCN)C(=O)N[C@@H](CC(C)C)C(=O)N[C@@H](CCC(N)=O)C(=O)N[C@@H](CC(=O)O)C(=O)N[C@H](C(=O)N[C@@H](Cc1cnc[nH]1)C(=O)N[C@@H](CC(N)=O)C(=O)N[C@@H](Cc1ccccc1)C(=O)O)C(C)C)C(C)C [PTH1-34, teriparatide]
- Cmax [1]: 7.72 to 12.2 ng/mL
- Tmax [1]: 5 min
- half-life ([1]; read-out: t1/2 for PTH1-34): 15 to 23 min
- trabecular bone in femur and sternum (Crl:CD(SD) rats; female rats, 25 μg/kg/day SQ, 200 μg/kg/day PTH-072-1, 500 μg/kg/day PTH-074-1 intranasally): thickened trabecular bone
- changes in nasal turbinate tissues (Crl:CD(SD) rats; rats, 13 weeks intranasal): No changes considered to be attributable to the intranasal administration of PTH1-34 were observed
- clinical signs, ophthalmic observations, body weight, food consumption (Crl:CD(SD) rats; rats, 13 weeks, regardless of route, dose level or formulation): No PTH1-34 related clinical signs, ophthalmic observations, body weight changes, or food consumption changes were observed
- Tmax [2]: 13 to 26 min
- histologic changes in nasal tissues (beagles; dog, in vivo): no histologic changes in nasal tissues
- trabecular bone in femur and sternum (beagles; dogs dosed subcutaneously or intranasally at the high dose): minimally thickened trabecular bone
- AUClast greater in the dog than in humans at representative doses (beagles; dogs vs humans): ≥ 10 fold
- Cmax greater in the dog than in humans at representative doses (beagles; dogs vs humans): at least 7 fold
- clinical signs, ophthalmic findings, ECG, blood pressure, heart rate, body weights, food consumption (beagles; dogs, 13 weeks): No PTH1-34 related clinical signs, ophthalmic findings, electrocardiogram differences, blood pressure and heart rate differences, body weights, or food consumption changes were noted
- effect of addition of CB on permeation of the API (MatTek in vitro system): enhanced permeation

Compound: Calcitonin (CGNLSTCMLGTYTQDFNKFHTFPQTAIGVGAP; ends and bridges not checked; cysteine pairing not given here; UniProt P01258 85-116, looked up) [peptide API tested for CB permeation enhancement]
- effect of addition of CB on permeation of the API (MatTek in vitro system): failed to enhance permeation

Compound: Triton X
- TER reduction [3]: significant TER reduction
- cell viability (MTT) [4]: significant reduction of cell viability
- cytotoxicity (LDH) [5]: significant cytotoxicity

Compound: human growth hormone: protein whose nasal bioavailability in rats was reported raised by N-acetyl-L-cysteine
- nasal bioavailability of human growth hormone ([6]; with N-acetyl-L-cysteine): 12.2%
- nasal bioavailability of human growth hormone ([6]; without N-acetyl-L-cysteine): 7.5%
